The nature of series [1]: Plasmatic and hepatic concentration of C105SR in mice. The conditions noted are these: sc, mouse, 50 mg/kg by subcutaneous osmotic pump. The format is in vivo. As for the experimental part: Briefly, 70% of the liver was subjected to 1 h of ischaemia followed by 6 h of reperfusion, as recently described.[16] C105SR was administered using osmotic pumps at a dose of 50 mg/kg. […]
simulation was performed using @TOME‐2 server with no constraint. The images were generated using PyMOL and MarvinSketch.
Determination of plasmatic and hepatic concentration of C105SR. Mice (10-12 weeks-old, n=6) were anesthetized with isoflurane and subcutaneously implanted with Alzet® osmotic pump containing C105SR (50 mg/kg) or vehicle. 24h after, the blood and the liver were collected. C105SR in plasma and liver homogenates was extracted with cold acetonitrile containing 0.1% of acetic acid and centrifugation at 13,000 x g for 10 min at 4 °C. C105SR dosage was carried out by tandem mass spectrometric detection with a TSQ QUANTIS® mass spectrometer (ThermoFisher Scientific, Villebon-sur-Yvette, France), with an electrospray ionization source (ESI) which was set in positive electro-spray ionization (ESI+). The acquired data were processed using Trace Finder® software version 4.1 (Thermo Fisher Scientific, Villebon-sur-Yvette, France). Optimization of the MS conditions has been performed by single direct infusion of reference standards of the analyte. Two […]

Series [2] concerns hepatic ischaemia-reperfusion injury in C57BL/6J mice. As to the kind of experiment: Mouse model of hepatic ischaemia-reperfusion injury. The conditions noted are these: 50 mg/kg osmotic pump, 1 h ischaemia, 6 h reperfusion. The format is in vivo. The protocol: Mice (10–12 weeks-old) were anesthetised with isoflurane and subcutaneously implanted with Alzet® osmotic pump containing C105SR (50 mg/kg) or vehicle 24 h before the surgical procedure. The mice were anesthetised with isoflurane and subjected to partial hepatic ischaemia by clamping the hepatic artery and portal vein for 60 min, followed by 6 h of reperfusion induced by removal of the clamp. The sham-operated group underwent laparotomy without vascular occlusion.
Briefly, 70% of the liver was subjected to 1 h of ischaemia followed by 6 h of reperfusion, as recently described.[16] C105SR was administered using osmotic pumps at a dose of 50 mg/kg.
Mouse serum analysis. Blood was collected at 6 h of reperfusion. Alanine aminotransferase (ALT) and aspartate aminotransferase (AST) activities were measured on an automated analyzer in the Biochemistry Department of Henri Mondor Hospital.
Histological Analysis. Hematoxylin and eosin staining was performed on 4-μm thick formalin-fixed paraffin-embedded tissue sections. Slides were scanned at x20 magnification using a virtual slide scanning system (Axio scan7/ZEN slidescan). Necrosis areas were quantified with […]
TUNEL Assay. Terminal deoxynucleotidyl-transferase (TdT) dUTP Nick-End Labeling (TUNEL) was performed on formalin-fixed paraffin-embedded tissue sections using a commercial kit (Abcam, Cambridge, United Kingdom) following the manufacturer’s instructions. The number of TUNEL-positive cells were quantified using QuPath on slides scanned at x20 magnification using a virtual slide scanning system (Axio scan7/ZEN slidescan).
Caspase 3/7 activity assay. Caspase 3/7 activity was assessed using the commercially Caspase-Glo® 3/7 assay (Promega, Madison, Wisconsin) following the manufacturer’s instructions.
Briefly, Caspase-Glo® 3/7 Reagent was incubated with the cells and the caspase3/7 activity was determined by measuring luminescence with a luminometer (Berthold). Caspase3/7 activity was expressed as a percentage of the untreated control.
In silico modeling and docking. […]

Like-named read-outs stand apart in the source and are kept apart here.

In the case of `COc1ccc(Br)cc1[C@H](NC(=O)NCc1ccc2c(c1)CCCN2)C(=O)N1CCC[C@@H]1c1cccc2ccsc12` [Compound C105SR, 1-((S)-2-((R)-2-(benzo[b]thiophen-7-yl)pyrrolidin-1-yl)-1-(5-bromo-2-methoxyphenyl)-2-oxoethyl)-3-((1,2,3,4-tetrahydroquinolin-6-yl)methyl)urea], in series [1] (liver, read-out: hepatic concentration), the concentration at 24 h was about 30 nM. In addition, the concentration at 24 h in series [1] (plasma, read-out: plasmatic concentration) was about 30 nM. Also, in series [2], the “hepatocyte necrosis (histology)” value was “significantly protected”; the “serum ALT and AST levels” value was “significantly protected”. The “number of TUNEL-positive apoptotic cells” value in series [2] (vs vehicle) is “significantly reduced”.
